What was measured:
Experiment in all cases: Inhibition Assay
[1] = molecular target: Angiopoietin-1 receptor (Homo sapiens, UniProt Q02763)
Experimental: (§1) The kinase-catalyzed phosphorylation of poly(Glu4-Tyr) in the presence of varying concentrations of inhibitor was determined. The kinase were employed as fusion proteins of glutathion-S-transferase (GST) and the kinase domain. The relative amount of phosphorylated substrate was quantified by antiphosphotyrosine enzyme-linked immunosorbent assay.

[2] = molecular target: Vascular endothelial growth factor receptor 3 (Homo sapiens, UniProt P35916)
Experimental: as §1

[3] = molecular target: Vascular endothelial growth factor receptor 2 (Homo sapiens, UniProt P35968)
Experimental: as §1

[4] = molecular target: Epidermal growth factor receptor (Homo sapiens, UniProt P00533)
Experimental: as §1

[5] = molecular target: Fibroblast growth factor receptor 1 (Homo sapiens, UniProt P11362)
Experimental: as §1

[6] = molecular target: Insulin-like growth factor 1 receptor (Homo sapiens, UniProt P08069)
Experimental: as §1

Insulin-like growth factor 1 receptor, sequence (P08069 31-736 limits assumed): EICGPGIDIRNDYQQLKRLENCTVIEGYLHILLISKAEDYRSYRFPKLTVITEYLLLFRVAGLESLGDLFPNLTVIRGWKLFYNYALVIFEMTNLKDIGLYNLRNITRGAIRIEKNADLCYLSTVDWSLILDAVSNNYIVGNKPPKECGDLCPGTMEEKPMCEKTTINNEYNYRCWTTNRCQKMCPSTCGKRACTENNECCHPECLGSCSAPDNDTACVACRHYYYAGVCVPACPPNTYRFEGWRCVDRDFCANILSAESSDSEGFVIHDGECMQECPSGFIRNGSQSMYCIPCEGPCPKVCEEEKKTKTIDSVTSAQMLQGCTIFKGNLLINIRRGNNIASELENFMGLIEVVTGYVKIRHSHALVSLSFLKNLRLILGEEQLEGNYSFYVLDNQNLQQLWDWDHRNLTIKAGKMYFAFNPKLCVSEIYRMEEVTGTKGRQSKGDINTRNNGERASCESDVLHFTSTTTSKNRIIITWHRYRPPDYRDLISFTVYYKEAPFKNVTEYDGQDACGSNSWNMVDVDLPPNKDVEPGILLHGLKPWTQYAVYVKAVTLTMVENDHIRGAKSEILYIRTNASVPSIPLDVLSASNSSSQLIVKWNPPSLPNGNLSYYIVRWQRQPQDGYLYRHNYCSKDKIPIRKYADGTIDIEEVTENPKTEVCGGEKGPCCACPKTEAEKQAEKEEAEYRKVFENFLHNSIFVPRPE
Insulin-like growth factor 1 receptor, sequence (P08069 741-1367 limits assumed): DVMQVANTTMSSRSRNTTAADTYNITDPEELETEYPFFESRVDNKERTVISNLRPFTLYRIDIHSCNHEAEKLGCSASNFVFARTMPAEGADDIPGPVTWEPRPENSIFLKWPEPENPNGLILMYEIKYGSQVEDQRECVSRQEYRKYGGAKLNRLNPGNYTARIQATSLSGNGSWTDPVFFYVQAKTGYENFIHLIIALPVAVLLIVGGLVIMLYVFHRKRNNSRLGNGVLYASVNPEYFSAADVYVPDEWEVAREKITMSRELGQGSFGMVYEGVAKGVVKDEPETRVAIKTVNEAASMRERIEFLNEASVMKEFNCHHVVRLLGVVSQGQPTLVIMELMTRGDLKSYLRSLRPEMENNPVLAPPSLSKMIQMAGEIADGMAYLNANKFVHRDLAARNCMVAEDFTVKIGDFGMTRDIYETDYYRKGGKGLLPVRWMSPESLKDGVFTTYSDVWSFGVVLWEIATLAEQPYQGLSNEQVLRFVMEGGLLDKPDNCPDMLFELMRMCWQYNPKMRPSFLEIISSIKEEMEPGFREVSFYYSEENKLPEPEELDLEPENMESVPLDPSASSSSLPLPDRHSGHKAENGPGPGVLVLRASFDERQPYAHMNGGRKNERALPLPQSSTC
Epidermal growth factor receptor, sequence (P00533 whole entry): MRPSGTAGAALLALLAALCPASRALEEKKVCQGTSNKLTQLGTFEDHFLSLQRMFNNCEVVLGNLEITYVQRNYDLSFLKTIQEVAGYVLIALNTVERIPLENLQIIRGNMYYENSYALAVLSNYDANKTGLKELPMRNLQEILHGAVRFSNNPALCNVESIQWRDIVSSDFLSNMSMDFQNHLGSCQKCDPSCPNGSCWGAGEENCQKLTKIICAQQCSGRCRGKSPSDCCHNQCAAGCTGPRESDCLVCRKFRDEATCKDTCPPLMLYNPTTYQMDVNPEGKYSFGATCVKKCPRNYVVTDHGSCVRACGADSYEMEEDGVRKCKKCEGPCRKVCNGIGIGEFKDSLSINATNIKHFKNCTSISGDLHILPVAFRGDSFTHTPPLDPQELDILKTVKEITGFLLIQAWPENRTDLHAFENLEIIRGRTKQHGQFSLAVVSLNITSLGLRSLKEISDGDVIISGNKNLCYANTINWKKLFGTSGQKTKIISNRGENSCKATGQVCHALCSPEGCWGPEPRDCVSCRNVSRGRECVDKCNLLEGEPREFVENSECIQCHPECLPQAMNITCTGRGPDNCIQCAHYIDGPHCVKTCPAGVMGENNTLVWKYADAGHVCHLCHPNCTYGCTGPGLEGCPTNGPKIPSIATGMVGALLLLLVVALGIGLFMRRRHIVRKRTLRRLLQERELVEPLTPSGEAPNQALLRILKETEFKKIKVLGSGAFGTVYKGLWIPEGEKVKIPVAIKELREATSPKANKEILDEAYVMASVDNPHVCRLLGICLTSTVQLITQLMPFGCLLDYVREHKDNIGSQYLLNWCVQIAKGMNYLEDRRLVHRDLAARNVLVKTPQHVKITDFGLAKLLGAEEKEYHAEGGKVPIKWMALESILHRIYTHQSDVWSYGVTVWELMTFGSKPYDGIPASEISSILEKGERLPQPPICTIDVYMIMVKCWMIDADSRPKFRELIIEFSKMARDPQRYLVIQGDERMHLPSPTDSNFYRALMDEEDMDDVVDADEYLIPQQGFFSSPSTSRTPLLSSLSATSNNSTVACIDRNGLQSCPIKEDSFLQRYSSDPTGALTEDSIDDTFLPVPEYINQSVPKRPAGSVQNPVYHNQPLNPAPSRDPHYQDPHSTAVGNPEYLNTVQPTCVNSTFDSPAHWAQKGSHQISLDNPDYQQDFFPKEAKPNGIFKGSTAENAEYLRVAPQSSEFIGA
Angiopoietin-1 receptor, sequence (Q02763 whole entry, the tested form may be a part): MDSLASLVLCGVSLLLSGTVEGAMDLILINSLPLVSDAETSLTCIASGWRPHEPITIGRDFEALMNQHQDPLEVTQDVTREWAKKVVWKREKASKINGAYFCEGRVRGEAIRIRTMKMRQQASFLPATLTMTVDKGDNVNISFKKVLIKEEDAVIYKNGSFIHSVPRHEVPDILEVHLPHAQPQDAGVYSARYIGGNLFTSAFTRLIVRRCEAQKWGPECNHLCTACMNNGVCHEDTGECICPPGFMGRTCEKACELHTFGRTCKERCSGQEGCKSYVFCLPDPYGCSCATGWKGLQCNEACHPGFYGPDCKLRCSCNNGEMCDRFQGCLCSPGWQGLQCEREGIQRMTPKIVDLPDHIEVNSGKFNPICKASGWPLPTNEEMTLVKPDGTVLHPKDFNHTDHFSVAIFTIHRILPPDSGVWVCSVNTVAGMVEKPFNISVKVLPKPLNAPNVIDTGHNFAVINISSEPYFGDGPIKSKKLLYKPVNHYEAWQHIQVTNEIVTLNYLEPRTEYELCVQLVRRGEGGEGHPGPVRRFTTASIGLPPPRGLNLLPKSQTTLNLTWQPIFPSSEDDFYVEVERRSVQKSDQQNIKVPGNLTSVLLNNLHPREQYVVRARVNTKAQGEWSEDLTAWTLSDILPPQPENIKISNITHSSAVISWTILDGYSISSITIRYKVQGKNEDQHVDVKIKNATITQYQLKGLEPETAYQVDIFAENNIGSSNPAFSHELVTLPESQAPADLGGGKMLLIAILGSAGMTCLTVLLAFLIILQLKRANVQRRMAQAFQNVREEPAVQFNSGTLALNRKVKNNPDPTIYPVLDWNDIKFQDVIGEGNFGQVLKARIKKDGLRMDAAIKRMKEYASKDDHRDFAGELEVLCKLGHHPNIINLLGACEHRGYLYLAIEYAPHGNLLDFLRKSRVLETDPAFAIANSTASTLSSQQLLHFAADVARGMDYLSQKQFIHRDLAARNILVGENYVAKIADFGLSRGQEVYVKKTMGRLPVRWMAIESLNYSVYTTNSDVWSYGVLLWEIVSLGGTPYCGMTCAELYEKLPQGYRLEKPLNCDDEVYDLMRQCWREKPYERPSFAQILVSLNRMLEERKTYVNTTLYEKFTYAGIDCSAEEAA
Vascular endothelial growth factor receptor 2, sequence (P35968 whole entry): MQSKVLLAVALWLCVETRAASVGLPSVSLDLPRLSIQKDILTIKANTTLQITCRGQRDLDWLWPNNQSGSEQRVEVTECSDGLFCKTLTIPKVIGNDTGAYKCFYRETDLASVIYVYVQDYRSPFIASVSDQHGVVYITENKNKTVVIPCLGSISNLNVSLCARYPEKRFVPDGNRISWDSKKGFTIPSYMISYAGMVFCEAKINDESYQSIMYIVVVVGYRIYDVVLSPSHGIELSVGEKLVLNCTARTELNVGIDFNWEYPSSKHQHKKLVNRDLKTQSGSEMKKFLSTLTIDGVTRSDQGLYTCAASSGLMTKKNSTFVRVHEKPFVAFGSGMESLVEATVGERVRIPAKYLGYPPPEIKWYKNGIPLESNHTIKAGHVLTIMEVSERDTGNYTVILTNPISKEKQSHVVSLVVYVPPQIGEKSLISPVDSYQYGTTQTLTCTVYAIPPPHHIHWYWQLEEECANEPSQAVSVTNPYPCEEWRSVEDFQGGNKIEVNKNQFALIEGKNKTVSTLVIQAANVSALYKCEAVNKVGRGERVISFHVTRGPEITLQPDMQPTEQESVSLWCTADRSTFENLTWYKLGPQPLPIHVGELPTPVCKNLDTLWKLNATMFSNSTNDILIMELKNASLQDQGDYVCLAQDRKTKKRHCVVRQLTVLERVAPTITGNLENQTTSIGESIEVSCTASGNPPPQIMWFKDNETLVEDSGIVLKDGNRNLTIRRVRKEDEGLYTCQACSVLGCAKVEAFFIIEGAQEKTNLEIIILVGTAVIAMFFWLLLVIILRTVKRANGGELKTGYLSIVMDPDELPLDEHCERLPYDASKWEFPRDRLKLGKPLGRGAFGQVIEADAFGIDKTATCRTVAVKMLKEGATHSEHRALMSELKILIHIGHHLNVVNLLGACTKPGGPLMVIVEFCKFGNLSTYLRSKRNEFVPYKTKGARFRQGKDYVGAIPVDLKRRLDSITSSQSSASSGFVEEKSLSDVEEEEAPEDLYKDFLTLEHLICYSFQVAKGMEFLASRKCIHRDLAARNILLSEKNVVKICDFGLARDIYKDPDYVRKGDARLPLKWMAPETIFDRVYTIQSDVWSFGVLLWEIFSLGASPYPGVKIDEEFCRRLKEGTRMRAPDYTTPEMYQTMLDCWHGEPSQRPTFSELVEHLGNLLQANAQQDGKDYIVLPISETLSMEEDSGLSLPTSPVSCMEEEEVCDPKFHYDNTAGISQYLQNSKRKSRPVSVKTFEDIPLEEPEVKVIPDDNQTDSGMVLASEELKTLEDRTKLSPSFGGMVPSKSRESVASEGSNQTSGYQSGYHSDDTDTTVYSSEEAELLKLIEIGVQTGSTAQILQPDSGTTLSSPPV

Compound | IC50 [1] [µM] | IC50 [2] [µM] | IC50 [3] [µM] | IC50 [4] [µM] | IC50 [5] [µM] | IC50 [6] [µM]
CC1=C(CC(=O)O)c2cc(F)ccc2/C1=C\c1ccc(F)c(F)c1 [Sulindac analogue, 10] | 5 | – | – | – | – | –
CC1=C(CC(=O)O)c2cc(F)ccc2/C1=C\c1cccs1 [Sulindac analogue, 12] | 5 | – | – | – | – | –
CC1=C(CC(=O)O)c2cc(F)ccc2/C1=C\c1ccsc1 [Sulindac analogue, 13] | 0.6 | 15 | 14 | – | – | –
CC1=C(CC(=O)O)c2cc(F)ccc2/C1=C\c1ccoc1 [Sulindac analogue, 14] | – | – | 8 | – | – | –
CC1=C(CC(=O)O)c2cc(Cl)ccc2/C1=C\c1ccoc1 [Sulindac analogue, 17] | 5 | 14 | – | 8 | – | 7
CC1=C(CC(=O)O)c2cc(Br)ccc2/C1=C\c1ccccc1 [Sulindac analogue, 18] | 1 | – | – | – | – | –
CC1=C(CC(=O)O)c2ccc(Br)cc2/C1=C\c1ccsc1 [Sulindac analogue, 19] | 1 | 4 | 3 | 12 | 23 | 4
CC1=C(CC(=O)O)c2ccc(Br)cc2/C1=C/c1ccsc1 [Sulindac analogue, 20] | 11 | – | – | – | – | 71
CC1=C(CC(=O)O)c2ccc(Br)cc2/C1=C\c1ccoc1 [Sulindac analogue, 21] | 3 | 15 | 24 | 22 | – | 13
CCC1=C(CC(=O)O)c2cc(/C=C/C(=O)OC(C)(C)C)ccc2/C1=C\c1ccsc1 [Sulindac analogue, 23] | 5 | – | – | – | – | –

Results, then the molecule that gave them:

IC50 [1] [µM] | IC50 [2] [µM] | IC50 [3] [µM] | IC50 [4] [µM] | IC50 [5] [µM] | IC50 [6] [µM] | Compound
11 | – | – | – | – | – | CC1=C(CC(=O)O)c2cc(F)ccc2/C1=C\c1cccc(OCc2ccccc2)c1 [Sulindac analogue, 11]
1 | – | 5 | 0.9 | 3 | – | CCC1=C(CC(=O)O)c2cc(F)ccc2/C1=C\c1ccoc1 [Sulindac analogue, 15]
2 | – | – | – | – | – | CCC1=C(CC(=O)O)c2cc(F)ccc2/C1=C\c1ccc(OCc2ccccc2)cc1 [Sulindac analogue, 16]
7 | – | – | – | – | – | CC1=C(CC(=O)O)c2cc(I)ccc2/C1=C\c1cccc(OCc2ccccc2)c1 [Sulindac analogue, 22]
5 | – | – | – | – | – | CCC1=C(CC(=O)O)c2cc(C#Cc3ccccc3)ccc2/C1=C\c1ccsc1 [Sulindac analogue, 24]

Source: BindingDB's records for doi:10.1002/cbic.200400192 (Max-Planck-Institut FÜR Molekulare Physiologie, 2005)
